± gives the standard deviation of the averaged measurements.
Experiments:
Experiment in all cases: level (log10 ratio to DMSO vehicle control); higher = higher biomarker level / cell amount than vehicle control
Conditions in all cases: in DMSO
[1] = compound: O=C(O)CCC(F)(F)C(F)(F)C(F)(F)F [3:3 Fluorotelomer carboxylic acid]
Experimental: (§1)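 BioMAP Diversity Plus panel of 12 human primary cell co-culture systems (3C, 4H, LPS, SAg, BT, BF4T, BE3C, CASM3C, HDF3CGF, KF3CT, MyoF, Mphg). Compounds were added 1 h before stimulation and left for 24 h (MyoF 48 h; BT 72 h for soluble read-outs or 6 d for IgG). Biomarkers were read by ELISA, cytotoxicity by SRB, PBMC viability and proliferation by Alamar Blue. Each well value was divided by the mean of 8 DMSO control wells on the same plate and log10 transformed; duplicate blinded samples were tested at 4 concentrations.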

[2] = compound: OCC(F)(F)C(F)(F)C(F)(F)C(F)(F)C(F)(F)C(F)F [1H,1H,7H-Dodecafluoro-1-heptanol]
Experimental: as §1

[3] = compound: O=S(=O)(O)C(F)(F)C(F)(F)C(F)(F)C(F)(F)C(F)(F)C(F)(F)C(F)(F)C(F)(F)F [Perfluorooctanesulfonic acid]
Experimental: as §1

1-(Perfluorohexyl)octane = compound: CCCCCCCCC(F)(F)C(F)(F)C(F)(F)C(F)(F)C(F)(F)C(F)(F)F [1-(Perfluorohexyl)octane]
Experimental: as §1

[4] = compound: CNS(=O)(=O)C(F)(F)C(F)(F)C(F)(F)C(F)(F)C(F)(F)C(F)(F)C(F)(F)C(F)(F)F [N-Methylperfluorooctanesulfonamide]
Experimental: as §1

Perfluorohexanoic acid = compound: O=C(O)C(F)(F)C(F)(F)C(F)(F)C(F)(F)C(F)(F)F [Perfluorohexanoic acid]
Experimental: as §1

[5] = compound: FC(F)(F)C(F)(F)C(F)(F)C(F)(F)C(F)(F)C(F)(F)C(F)(F)CCI [1-Iodo-1H,1H,2H,2H-perfluorononane]
Experimental: as §1

| Test System | level (log10) ([1]; 6700 nM) | level (log10) ([1]; 20000 nM) | level (log10) ([1]; 60000 nM) | level (log10) ([2]; 6700 nM) | level (log10) ([2]; 20000 nM) | level (log10) ([2]; 60000 nM) | level (log10) ([3]; 6700 nM) | level (log10) ([3]; 20000 nM) | level (log10) ([3]; 60000 nM) | level (log10) (1-(Perfluorohexyl)octane; 6700 nM) | level (log10) (1-(Perfluorohexyl)octane; 20000 nM) | level (log10) ([4]; 6700 nM) | level (log10) ([4]; 20000 nM) | level (log10) ([4]; 60000 nM) | level (log10) (Perfluorohexanoic acid; 6700 nM) | level (log10) (Perfluorohexanoic acid; 20000 nM) | level (log10) (Perfluorohexanoic acid; 60000 nM) | level (log10) ([5]; 6700 nM) | level (log10) ([5]; 20000 nM) |
| --- | --- | --- | --- | --- | --- | --- | --- | --- | --- | --- | --- | --- | --- | --- | --- | --- | --- | --- | --- |
| MyoF:TIMP-1 | -0.053 ± 0.067 | -0.033 ± 0.059 | -0.0275 ± 0.074 | -0.013 ± 0.018 | -0.0025 ± 0.023 | -0.0065 ± 0.046 | -0.002 ± 0.03 | 0.003 ± 0.0071 | 0.102 ± 0.0021 | -0.0265 ± 0.015 | -0.0465 ± 0.023 | -0.0435 ± 0.00071 | -0.049 ± 0.034 | -0.0415 ± 0.005 | 0.0085 ± 0.0021 | -0.006 ± 0.0042 | 0.0245 ± 0.0064 | -0.002 ± 0.054 | 0.0165 ± 0.042 |
| lMphg:CD62E/E-Selectin | 0.014 ± 0.025 | 0.028 ± 0.023 | 0.0435 ± 0.023 | -0.0295 ± 0.025 | -0.0265 ± 0.0035 | 0.001 ± 0.048 | -0.0015 ± 0.023 | 0.0385 ± 0.013 | 0.186 ± 0.029 | 0.0205 ± 0.012 | -0.0145 ± 0.03 | -0.12 ± 0.034 | -0.214 ± 0.03 | -0.182 ± 0.058 | 0.0025 ± 0.016 | 0 ± 0.0014 | -0.014 ± 0.0042 | 0.016 ± 0.02 | 0.001 ± 0.0099 |
| MyoF:Decorin | -0.024 ± 0.0028 | -0.0115 ± 0.015 | -0.004 ± 0.024 | -0.0105 ± 0.00071 | -0.0005 ± 0.036 | -0.017 ± 0.021 | 0.018 ± 0.0071 | 0.0365 ± 0.013 | 0.054 ± 0.018 | 0.005 ± 0.011 | 0.0265 ± 0.032 | 0.0105 ± 0.012 | 0.005 ± 0.0085 | -0.016 ± 0.0085 | -0.0215 ± 0.015 | 0.0005 ± 0.023 | 0.024 ± 0.013 | 0.014 ± 0.0042 | 0.038 ± 0.05 |
| KF3CT:CXCL9/MIG | 0 ± 0.0099 | 0.0055 ± 0.015 | 0.005 ± 0.0028 | 0.0135 ± 0.012 | 0.0065 ± 0.0035 | 0.0015 ± 0.018 | -0.007 ± 0.0042 | 0.0025 ± 0.0035 | 0.0075 ± 0.012 | 0.0085 ± 0.013 | 0.001 ± 0.0057 | -0.008 ± 0.0057 | -0.0015 ± 0.0092 | -0.0035 ± 0.023 | 0.0075 ± 0.0064 | 0.0035 ± 0.012 | 0.0095 ± 0.012 | 0.0045 ± 0.00071 | -0.01 ± 0.025 |
| MyoF:alpha-SM Actin | -0.011 ± 0.045 | 0.002 ± 0.023 | -0.0055 ± 0.013 | -0.012 ± 0.0014 | 0.0015 ± 0.005 | -0.0115 ± 0.011 | -0.0015 ± 0.023 | 0.004 ± 0.035 | 0.0105 ± 0.005 | -0.0125 ± 0.032 | -0.0095 ± 0.0078 | -0.021 ± 0.068 | -0.008 ± 0.042 | 0.024 ± 0.059 | -0.021 ± 0.016 | 0.011 ± 0.0099 | 0.013 ± 0.037 | -0.016 ± 0.02 | -0.0435 ± 0.0035 |
| KF3CT:CXCL8/IL-8 | 0.0005 ± 0.022 | -0.0035 ± 0.0092 | -0.0005 ± 0.0064 | 0.017 ± 0.0028 | 0.01 ± 0.025 | 0.0165 ± 0.016 | -0.005 ± 0.0085 | -0.0135 ± 0.035 | -0.012 ± 0.035 | 0.009 ± 0.0085 | 0.021 ± 0.0057 | -0.039 ± 0.041 | -0.158 ± 0.037 | -0.106 ± 0.02 | -0.005 ± 0.014 | 0.009 ± 0.04 | 0.031 ± 0.013 | 0.013 ± 0.0071 | 0.0605 ± 0.0092 |
| lMphg:sIL-10 | -0.049 ± 0.073 | -0.035 ± 0.076 | -0.087 ± 0.016 | 0.0085 ± 0.11 | -0.006 ± 0.031 | 0.0485 ± 0.0078 | -0.033 ± 0.076 | -0.0295 ± 0.012 | -0.727 ± 0.099 | -0.0375 ± 0.056 | -0.036 ± 0.054 | -0.0935 ± 0.016 | -0.115 ± 0.03 | -0.169 ± 0.1 | -0.0285 ± 0.0092 | -0.0375 ± 0.046 | -0.0945 ± 0.021 | -0.0685 ± 0.00071 | -0.072 ± 0.021 |
| CASM3C:HLA-DR | 0.007 ± 0.0085 | 0.006 ± 0.023 | -0.009 ± 0.028 | -0.0045 ± 0.03 | 0.0075 ± 0.0064 | 0.0045 ± 0.0021 | -0.0365 ± 0.012 | -0.0465 ± 0.016 | -0.0395 ± 0.052 | -0.0155 ± 0.015 | -0.0125 ± 0.005 | -0.0525 ± 0.039 | -0.0875 ± 0.011 | -0.0315 ± 0.079 | 0.004 ± 0.0099 | -0.004 ± 0.0057 | -0.004 ± 0.011 | 0.0055 ± 0.0064 | -0.007 ± 0.0071 |
| BE3C:MMP-9 | -0.0025 ± 0.022 | 0.0085 ± 0.0078 | -0.0085 ± 0.025 | -0.009 ± 0.0028 | -0.0105 ± 0.00071 | -0.02 ± 0.0028 | -0.0185 ± 0.018 | -0.117 ± 0.0035 | -0.215 ± 0.086 | -0.0065 ± 0.0021 | -0.005 ± 0.0057 | -0.094 ± 0.0014 | -0.11 ± 0.0057 | -0.102 ± 0.0064 | -0.0155 ± 0.018 | -0.005 ± 0.0071 | 0.0145 ± 0.013 | -0.0045 ± 0.013 | -0.0045 ± 0.026 |
| BE3C:tPA | -0.0195 ± 0.0035 | -0.03 ± 0.016 | -0.0365 ± 0.015 | -0.0125 ± 0.0064 | -0.0285 ± 0.018 | -0.029 ± 0.018 | 0.119 ± 0.013 | -0.09 ± 0.0099 | -0.253 ± 0.025 | -0.0015 ± 0.03 | 0 ± 0.033 | 0.186 ± 0.0057 | 0.192 ± 0.0099 | 0.176 ± 0.005 | -0.032 ± 0.054 | -0.0405 ± 0.016 | -0.046 ± 0.018 | 0.004 ± 0.035 | 0.011 ± 0.035 |
| HDF3CGF:PAI-I | -0.006 ± 0.031 | -0.0035 ± 0.023 | 0.0085 ± 0.005 | -0.008 ± 0.0085 | -0.004 ± 0.02 | 0.006 ± 0.047 | 0.006 | 0.0125 ± 0.011 | -0.0015 ± 0.025 | 0.0005 ± 0.016 | 0.0165 ± 0.0021 | 0.051 ± 0.0028 | 0.0455 ± 0.019 | 0.063 ± 0.02 | 0.0415 ± 0.044 | -0.0095 ± 0.021 | 0.025 ± 0.075 | 0.0075 ± 0.023 | -0.0095 ± 0.032 |
| HDF3CGF:TIMP-1 | 0.0025 ± 0.019 | 0.004 | 0.0015 ± 0.0035 | -0.015 ± 0.027 | -0.0055 ± 0.033 | 0.011 ± 0.044 | -0.0015 ± 0.021 | 0.0165 ± 0.026 | 0.0895 ± 0.061 | 0.0105 ± 0.039 | -0.0185 ± 0.03 | 0.0335 ± 0.016 | -0.025 ± 0.038 | 0.012 ± 0.02 | -0.0005 ± 0.0078 | -0.002 ± 0.016 | 0.0025 ± 0.015 | -0.0035 ± 0.0035 | 0.047 ± 0.0085 |
| KF3CT:TIMP-2 | -0.002 ± 0.021 | -0.006 ± 0.0099 | -0.0025 ± 0.016 | 0.0015 ± 0.005 | 0.0015 ± 0.0021 | 0.0015 ± 0.0064 | -0.01 ± 0.0014 | -0.0085 ± 0.016 | 0.0225 ± 0.025 | 0.004 ± 0.02 | -0.016 ± 0.011 | 0.0185 ± 0.0035 | 0.022 ± 0.024 | 0.008 ± 0.0028 | 0.004 ± 0.016 | -0.0125 ± 0.0035 | -0.0125 ± 0.0078 | 0.0145 ± 0.03 | -0.0035 ± 0.0064 |
| MyoF:CXCL8/IL-8 | -0.016 ± 0.037 | -0.0275 ± 0.05 | 0.0145 ± 0.093 | -0.034 ± 0.051 | 0 ± 0.1 | 0.0265 ± 0.063 | -0.057 ± 0.0028 | -0.0755 ± 0.013 | -0.025 ± 0.017 | 0.0015 ± 0.029 | 0.028 ± 0.011 | -0.0645 ± 0.056 | -0.0895 ± 0.049 | -0.163 ± 0.037 | -0.0015 ± 0.016 | -0.0075 ± 0.026 | -0.015 ± 0.05 | 0.0195 ± 0.0064 | 0.0335 ± 0.025 |

— the supplement of paper PMC10331698
